What was measured:
[1] = tested on: type I and II diabetics with symmetrical distal polyneuropathy or multineuropathy; details: patients treated with acetyl L-carnitine out of 333 recruited; cited from earlier work
[2] = tested on: patients with type 2 diabetes not on insulin treatment; assay: Double-blind placebo-controlled clinical trials in diabetic peripheral neuropathy, VAS pain assessment; population not on insulin; format: in vivo, human; details: active only at the higher dose (3 g/day)
Protocol: (§1) Two double-blind placebo-controlled clinical trials, identical in their experimental design, were conducted in patients with diagnoses of diabetic peripheral neuropathy selected according to the criteria established in the San Antonio, Tex. conference (Diabetes 37:1000-1004, 1988).
(§2) Acetyl L-carnitine was administered orally at doses of 1.5 g/day and 3.0 g/day for continuously for 52 weeks.
(§3) One objective of the studies consisted in the possible modification of the Visual Analogue Scale (VAS) (Scott J. Huskisson EC. Graphic representation of pain. Pain 1976;2:175-184) in the subjective assessment of pain symptoms and the main sensorimotor clinical parameters.

[3] = tested on: patients with type 2 diabetes on insulin treatment; assay: Double-blind placebo-controlled clinical trials in diabetic peripheral neuropathy, VAS pain assessment; population on insulin; format: in vivo, human; details: even at the higher dose
Protocol: as §1, §2, §3
The second population comprised patients with type 2 diabetes treated with insulin. Here, too, the population included a placebo group (Group 4) matching up to the same inclusion criteria as the patients treated with acetyl L-carnitine (on insulin treatment).

For `CC(=O)O[C@H](CC(=O)[O-])C[N+](C)(C)C` [Acetyl L-carnitine, acetyl L-carnitine], which “patients presenting an improvement in pain symptoms” value [1] is on record?
The value was 39%.

And the “activity compared to the placebo group at the end of treatment” value [2]?
Its value is “active in a dose-related manner”.

And the “activity compared to the control group” value [3]?
Its value is “no statistically significant difference in activity”.

Source: patent publication US20060004095A1, “Use of acetyl L-carnitine for the preparation of a medicine for the treatment of neuropathic pain in diabetic patients” (priority 2004, published 2006)
